# Source: patent US20130224223A1, “Compositions and Methods for Treating Neurological Disorders” (GEORGIA REGENTS UNIVERSITY, priority 2007, published 2013)
# How the values were obtained:
# cortical slices = assay: [3H]GABA release from prefrontal cortical slices; format: cell-based, mice; details: 20 mM KCl
# Procedure: FIG. 2A is a line graph of [^3H]GABA release fraction/total fraction versus time (mins). Cortical slices were preloaded with [^3H]GABA for 30 min in the presence of b-alanine (1 mM), an inhibitor of [^3H]GABA uptake by glial cells, aminooxyacetic acid (0.1 mM), an inhibitor of GABA degradation, and nipecotic acid (1 mM), an inhibitor of the GABA transporter in neurons. Basal and depolarization (20 mM KCl)-evoked release of [^3H]GABA were monitored sequentially. Controls (open circles) and NRG1 (closed circles). FIG. 2B is a line graph of percent [^3H]GABA release versus NRG1 concentration (nM). Basal (open circles) K+ evoked (closed circles). […] FIG. 2D is a line graph of cumulative counts versus mIPSC amplitude (pA). Controls (open circles) and NRG1 (closed circles). FIG. 2E is a line graph of cumulative counts versus mIPSC interevent interval (ms). Controls (open circles) and NRG1 (closed circles). FIG. 2F is a bar graph of mIPSC (percent) in control and NRG1 treated pyramidal neurons in prefrontal cortical slices (n=12). Amplitude (clear) and Frequencies (hatched). FIG. 2G is a bar graph of percent eIPSC amplitude in prefrontal cortical slices treated with NRG1 versus control or washout. n=12, *p<0.01. Representative eIPSCs of control, NRG1-treated, or NRG1-treated/washed slices are shown on top. FIG. 2H is a line graph of percent eIPSC amplitude versus NRG1 (nM). n=6, *p<0.05, **p<0.01. FIG. 2I is a bar graph of K^+ evoked [^3H]GABA release (percent) (left axis, clear rectangles) and eIPSC amplitude (percent) (right axis, hatched rectangles) in prefrontal cortical slices treated with NRG1, denature NRG1, or BDNF. n=8 for [^3H]GABA release; for eIPSCs, n=6 for control, NRG1, and denatured NRG1, and n=4 for BDNF. *p<0.05, #p<0.05; **p<0.05, ##<0.01.
# NRG1 may regulate GABAergic neurotransmission. To test this hypothesis, the effects of NRG1 on GABA release in cortical slices were determined by both biochemical and electrophysiological approaches. Basal [^3H]GABA release was low, at a rate of 3.75±0.35% (n=8) of total radioactivity per 10 min (FIG. 2A). Treatment of slices with 20 mM KCl, a condition known to depolarize neurons, increased [^3H]GABA release by 2.5-3.5 folds within 10 min (FIG. 2A). NRG1 had no effect on basal [^3H]GABA release; by contrast, it increased depolarization-evoked GABA release in a dose-dependent manner (FIG. 2B). […] Furthermore, the NRG regulation remained unchanged in the presence of antagonists of metabotropic glutamate receptors, cholinergic receptors, serotonin receptors, adrenergic receptors and/or dopamine receptors. As a control, BDNF decreased depolarization-evoked GABA release and eIPSCs in cortical slices, in agreement with earlier studies (Canas, et al., Brain Res, 1016:72-78 (2004); Frerking, et al., J Neurophysiol, 80:3383-3386 (1998)).
# [1] = test system: prefrontal cortical slices; assay: eIPSC recording in prefrontal cortical slices; format: cell-based, mice
# Procedure: Transverse prefrontal cortical slices (0.3 mm) were prepared from P28-P36 mice using a Vibroslice (Leica VT 10005) in the ice-cold solution, which contained 2.5 mM KCl, 1.25 mM NaH2PO4, 10 mM MgSO4, 0.5 mMCaCl2, 26 mM NaHCO3, 10 mM glucose, and 230 mM sucrose. Slices were allowed to recover for at least 2 hr in ACSF (1 hr at 34° C. followed by 1 hr at 22° C.) in a solution containing 126 mM NaCl, 2.5 mM KCl, 1.25 mM NaH2PO4, 2 mM MgSO4, 2 mM CaCl2, 26 mM NaHCO3, and 10 mM glucose. Slices were placed in the recording chamber and superfused (1.5 ml/min) with ACSF at 34° C. All solutions were saturated with 95% O2/5% CO2. Neurons were visualized with an IR-sensitive CCD camera with a 403 water-immersion lens (Zeiss, Axioskop2 Fsplus) and recorded using whole-cell voltage-clamp techniques (MultiClamp 7008 Amplifier, Digidata 1320A analog-to-digital converter) and pClamp 9.2 software (Axon Instruments). Glass pipettes were filled with the solution containing 125 mM Cs-gluconate, 10 mM CsCl, 1 mM MgCl2, 10 mM HEPES, 1 mM EGTA, 0.1 mM CaCl2, 10 mM sodium phosphocreatine, 4 mM Mg-ATP, 0.3 mM GTP, 0.2 mM leupeptin, and 5 mM lidocaine N-ethylchloride (QX314) (pH 7.2, with the osmolarity adjusted to 280 mOsm with sucrose). The resistance of pipettes was 2-3 MΩ For mIPSC recording, QX314 was omitted in the pipette filling solution, whereas […] was included in the superfusing solution. eIPSCs were generated with a two-concentric bipolar stimulating electrode ([…] pole separation; FHC, ME) positioned about […] from the neuron under recording. Single or paired pulses of 0.2 ms were delivered at 0.1 Hz and synchronized using a Mater-8 stimulator (A.M.P.I). The holding potential for both mIPSCs and eIPSCs was −65 mV. All experiments were done at 34° C. in the presence of 6-cyano-7-nitroquinoxaline-2,3-dione (CNQX, […]) and AP-5 ([…]) to block AMPA/NMDA receptors. Data were collected when series resistance fluctuated within 15% of initial values (8-15 MU), they were filtered at 2 kHz, and they were sampled at 10 kHz.
# [2] = substance alone, no other exogenous agent, AG1478/AG879 5 mM [sic]
smiles,measurement,setting,value
COc1cc2ncnc(Nc3cccc(Cl)c3)c2cc1OC [AG1478],depolarization-evoked [3H]GABA release,cortical slices; [2],decreased
same,NRG1-enhanced evoked GABA release,cortical slices; substance given with exogenous NRG1,prevented
same,evoked IPSCs (eIPSCs),[1]; [2],decreased
same,NRG1 potentiation of eIPSCs,[1]; substance given with exogenous NRG1 (5 nM),prevented
